Results: ChEMBL document CHEMBL4261659, “Synthesis and biological evaluation of novel N-substituted nipecotic acid derivatives with a trans-alkene spacer as potent GABA uptake inhibitors” (Bioorg Med Chem, 2018)
pIC50, pKi: −log10 of the molar value.

Key:
[1] = target: T1, Sodium- and chloride-dependent GABA transporter 1 (Mus musculus, UniProt P31648); assay: Displacement of NO711 from mouse GAT1 expressed in stable HEK293 cells preincubated for 10 mins followed by NO711 addition and measured after 40 mins by LC-ESI-MS/MS analysis; assay type: cell-based
[2] = target: T1, Sodium- and chloride-dependent GABA transporter 1; assay: Inhibition of mouse GAT1 expressed in HEK293 cells assessed as reduction in [3H]GABA uptake preincubated for 25 mins followed by [3H]GABA addition and measured after 4 mins by liquid scintillation counting method; assay type: cell-based
[3] = target: T2, GABA transporter 4 (Mus musculus, UniProt P31650); assay: Inhibition of mouse GAT4 expressed in HEK293 cells assessed as reduction in [3H]GABA uptake preincubated for 25 mins followed by [3H]GABA addition and measured after 4 mins by liquid scintillation counting method; assay type: cell-based
T2 sequence (P31650 whole entry): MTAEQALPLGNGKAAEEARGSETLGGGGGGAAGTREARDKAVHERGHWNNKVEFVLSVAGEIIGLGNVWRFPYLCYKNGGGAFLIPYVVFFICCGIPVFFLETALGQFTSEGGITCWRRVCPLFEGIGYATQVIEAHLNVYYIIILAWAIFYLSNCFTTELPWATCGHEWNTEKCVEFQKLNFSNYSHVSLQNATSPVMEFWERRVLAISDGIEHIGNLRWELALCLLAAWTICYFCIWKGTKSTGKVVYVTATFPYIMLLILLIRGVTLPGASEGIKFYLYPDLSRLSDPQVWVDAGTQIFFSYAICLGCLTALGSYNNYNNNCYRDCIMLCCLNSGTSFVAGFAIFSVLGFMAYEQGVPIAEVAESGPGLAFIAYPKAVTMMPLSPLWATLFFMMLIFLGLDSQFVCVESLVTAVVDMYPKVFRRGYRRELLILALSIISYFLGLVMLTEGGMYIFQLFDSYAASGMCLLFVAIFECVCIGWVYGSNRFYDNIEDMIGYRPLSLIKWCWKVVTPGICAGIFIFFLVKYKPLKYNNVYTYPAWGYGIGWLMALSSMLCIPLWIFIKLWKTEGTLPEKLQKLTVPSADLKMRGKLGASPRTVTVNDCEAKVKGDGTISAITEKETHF

[4] = target: Sodium- and chloride-dependent GABA transporter 1 (Mus musculus) (UniProt P31648); assay: Displacement of NO711 from mouse GAT1 expressed in stable HEK293 cells assessed as remaining specific NO711 binding level preincubated at 100 uM for 10 mins followed by NO711 addition and measured after 40 mins by LC-ESI-MS/MS analysis; assay type: cell-based
[5] = target: Sodium- and chloride-dependent GABA transporter 1 (Mus musculus) (UniProt P31648); assay: Inhibition of mouse GAT1 expressed in HEK293 cells assessed as remaining [3H]GABA uptake at 100 uM preincubated for 25 mins followed by [3H]GABA addition and measured after 4 mins by liquid scintillation counting method; assay type: cell-based
[6] = target: T3, GABA transporter 4 (Mus musculus) (UniProt P31650); assay: Inhibition of mouse GAT4 expressed in HEK293 cells assessed as remaining [3H]GABA uptake at 100 uM preincubated for 25 mins followed by [3H]GABA addition and measured after 4 mins by liquid scintillation counting method; assay type: cell-based
T3 sequence (whole entry): T2 sequence (P31650 whole entry)

[7] = system: Betaine/GABA transporter BGT1 (Mus musculus); assay: Inhibition of mouse GAT2 expressed in HEK293 cells assessed as remaining [3H]GABA uptake at 100 uM preincubated for 25 mins followed by [3H]GABA addition and measured after 4 mins by liquid scintillation counting method
[8] = system: GABA transporter 3 (Mus musculus); assay: Inhibition of mouse GAT3 expressed in HEK293 cells assessed as remaining [3H]GABA uptake at 100 uM preincubated for 25 mins followed by [3H]GABA addition and measured after 4 mins by liquid scintillation counting method

pKi [1] | pIC50 [2] | pIC50 [3] | Activity [4] [%] | Activity [5] [%] | Activity [6] [%] | Activity [7] [%] | Activity [8] [%] | SMILES
5.20 | 4.75 | 4.82 | – | – | – | – | – | O=C(O)C1CCCN(C/C=C/C(c2ccc3c(c2)OCO3)(c2ccc3c(c2)OCO3)c2ccc3c(c2)OCO3)C1 (racemic)
– | – | – | 62 | 70 | 83 | 72 | 83 | COc1ccc(C(/C=C/CN2CCCC(C(=O)O)C2)(c2ccc(OC)cc2)c2nccn2C)cc1 (racemic)
7.51 | 6.78 | – | – | – | 82 | 96 | 69 | O=C(O)C1CCCN(C/C=C/CC(c2ccccc2)c2ccccc2)C1 (racemic)
5.14 | 4.85 | 5.54 | – | – | – | – | – | COc1ccc(C(/C=C/CN2CCC[C@H](C(=O)O)C2)(c2ccc(OC)cc2)c2ccc3sccc3c2)cc1
5.43 | 4.85 | 4.50 | – | – | – | 51 | – | COc1ccc(C(/C=C/CN2CCCC(C(=O)O)C2)c2ccc(OC)cc2)cc1 (racemic)
– | 4.15 | 4.35 | 54 | – | – | 69 | 66 | COc1ccc(C(O)(/C=C/CN2CCCC(C(=O)O)C2)c2ccc(OC)cc2)cc1 (racemic)
4.89 | 4.41 | 5.12 | – | – | – | 53 | – | COc1ccc(C(/C=C/CN2CCCC(C(=O)O)C2)(c2ccc(OC)cc2)c2ccsc2)cc1 (racemic)
5.26 | 4.69 | 4.97 | – | – | – | – | – | Cc1ccc(C(/C=C/CN2CCCC(C(=O)O)C2)(c2ccc(C)cc2)c2ccc(C)cc2)cc1 (racemic)
5.67 | 5.39 | 5.23 | – | – | – | – | – | O=C(O)C1CCCN(C/C=C/C(c2ccc3occc3c2)(c2ccc3occc3c2)c2ccc3occc3c2)C1 (racemic)
5.08 | 4.39 | – | – | – | 89 | 108 | 103 | O=C(O)C1CCCN(C/C=C/C(c2ccccc2)(c2ccccc2)c2ccccc2)C1 (racemic)
4.46 | 4.26 | 4.38 | – | – | – | 66 | – | COc1ccc(C(C/C=C/CN2CCCC(C(=O)O)C2)(c2ccc(OC)cc2)c2ccc(OC)cc2)cc1 (racemic)
5.01 | 4.67 | 4.13 | – | – | – | 55 | 56 | O=C(O)C1CCCN(C/C=C/CC(c2ccccc2)(c2ccccc2)c2ccccc2)C1 (racemic)
5.06 | 4.55 | 5.50 | – | – | – | 53 | – | COc1ccc(C(/C=C/CN2CCCC(C(=O)O)C2)(c2ccc(OC)cc2)c2ccc3c(c2)OCO3)cc1 (racemic)
5.33 | 4.80 | – | – | – | 69 | 92 | 66 | COc1ccc(C(/C=C/CN2CCCC(C(=O)O)C2)(Cc2ccccc2)c2ccc(OC)cc2)cc1 (racemic)
– | – | 4.70 | 54 | 50 | – | – | – | O=C(O)C1CCCN(C/C=C/C(c2ccc3sccc3c2)(c2ccc3sccc3c2)c2ccc3sccc3c2)C1 (racemic)
4.47 | – | – | – | 65 | 49 | 78 | 82 | COc1ccc(C(/C=C/CN2CCCC(C(=O)O)C2)(c2ccc(OC)cc2)c2nccs2)cc1 (racemic)
5.51 | 4.95 | 4.18 | – | – | – | 60 | 53 | COc1ccc(CC(/C=C/CN2CCCC(C(=O)O)C2)(c2ccc(OC)cc2)c2ccc(OC)cc2)cc1 (racemic)
5.49 | 4.87 | – | – | – | 84 | 96 | 71 | COc1ccc(C(C/C=C/CN2CCCC(C(=O)O)C2)c2ccc(OC)cc2)cc1 (racemic)
5.48 | 4.99 | 5.45 | – | – | – | – | – | COc1ccc(C(/C=C/CN2CCCC(C(=O)O)C2)(c2ccc(OC)cc2)c2ccc3sccc3c2)cc1 (racemic)
